In data set [1] the test system is CCRF-CEM human lymphoblastic leukemia cells. Briefly: cells. Conditions: 72 h, read-out: Cytotoxicity IC50, CCRF-CEM.
Data set [2] concerns Human colon carcinoma HCT-116 cells. Briefly: cells. Conditions: HCT-116, 72 h, read-out: Cytotoxicity IC50, HCT-116.
Data set [3] relates to Human mammary carcinoma (MX-1) tumor cells. Briefly: In vitro cytotoxicity, SRB assay, 72-hr incubation. The conditions noted are these: Homo sapiens, 72 h, read-out: Cytotoxicity IC50, MX-1. A general note: The SRB assay estimates cell density from bound dye.
Data set [4] concerns CCRF-CEM/Taxol. In words: In vitro cytotoxicity, XTT assay, taxol-resistant subline. Conditions: Homo sapiens, CCRF-CEM, 72 h, read-out: Cytotoxicity IC50, CCRF-CEM/Taxol. A general note: Tetrazolium dyes change colour on reduction, which living cells bring about.
Data set [5] has as its system human mammary carcinoma MX-1 xenograft. Briefly: Antitumor therapeutic effect against MX-1 xenograft in nude mice. Format: in vivo. The conditions noted are these: for Therapeutic effect: complete tumor remission (CR), mice with CR/total and day / Maximal body-weight loss (%) / Therapeutic effect: tumor relapse: i.v. injection; for Therapeutic effect: complete tumor remission (CR), mice with CR/total and day: treatment from Day 8, dose and schedule per compound as in Table 3 (30-150 mg/kg); for Maximal body-weight loss (%) / Therapeutic effect: tumor relapse: dose and schedule per compound as in Table 3; for Remark (dose tolerability): BO-1053 70 mg/kg Q2Dx5, BO-1063 and BO-1065 100 mg/kg QDx3, i.v. How it is done:
Athymic nude mice bearing the nu/nu gene were obtained from NCI, Frederick, Md. and used for all human tumor xenografts. Male nude mice 6 weeks or older weighing 20-24 g or more were used. Compounds were administered via the tail vein for i.v. injection or infusion as described previously.^64 A typical formulation for chemotherapeutic studies for each drug was dissolved in DSMO to make a 25 mg/ml fresh solution, 0.4 ml of this solution was mixed with 0.3 ml of Tween 80, plus 1.3 ml to make 2 ml of 5 mg/ml solution. Bolus injection volume was 0.1-0.2 ml per mouse. Tumor volume was assessed by measuring length×width×height (or width) by using a caliper. For tumor-bearing nude mice during the course of the experiment, the body weight refers to total weight minus the weight of the tumor. All animal studies were conducted in accordance with the guidelines for the National Institute of Health Guide for the Care and Use of Animals and the protocol approved by the Institutional Animal Care and Use Committee.
The therapeutic effects of a drug against human tumor xenografts in nude mice, under the optimal therapeutic conditions but without any lethality due to drug toxicity, the following degrees of therapeutic effects are defined and calculated by the following formula: […]
where • T0 is the initial tumor size (in mm^3) at beginning of drug treatment; • Tc is tumor size of untreated control group on a given date; and • Tx is tumor size of the drug treated group on a given date.
[formula] • Tumor disappearance (complete remission or CR) is defined by the effect where • [Tx=0] for a period of time (in days) for a proportion of animals (NCR/N), where • N is the total number of animals in the group, and NCR is the number of mice in the group that achieved CR. • Tumor relapse is quantitatively calculated by • [The Day tumor relapsed (Drelp)—The Day CR achieved (DCR)] (Eq. 3) for a proportion of animals (Nrelp/N) where N is the total number of animals in the group, and Nrelp is the number of the mice in the group that relapsed. • The log cell kill (LCK) of the tumor tissue after a given chemotherapy that reached CR is estimated by: LCK=log [2^(Tumor remission in days/Tumor doubling time in days)] (Eq. 4)
Athymic nude mice bearing the nu/nu gene were used for human breast tumor MX-1 xenograft (FIGS. 3 and 4) and human brain glioma U87 GM xenograft (FIG. 5). Nude mice were obtained from National Cancer Institute, Frederick, Md. Male mice 6 weeks old or older weighing 22 g or more were used for experiments with subcutaneous tumor inoculation as described previously.^67 Drug was administrated via the tail vein by iv injection. Tumor volumes were assessed by measuring length×width×height (or width) by using caliper. Vehicle used was 20 μL DMSO in 180 μL saline. All animal studies were conducted in accordance with the guidelines of the U.S. National Institutes of Health Guide for the Care and Use of Animals and the protocol approved by the Institutional Animal Care and Use Committee.

This note sets out measurements from patent US9193687B2 (priority 2007, dated 2015).

Values joined by “and” are separate entries in the source; they are usually repeats but may differ in a detail not shown here. Equal values may be shown once.

Take `O=C(Nc1ccc(N(CCCl)CCCl)cc1)Nc1c2ccccc2nc2ccccc12` [BO-1034, 1-acridin-9-yl-3-{4-[bis(2-chloroethyl)amino]phenyl}urea]: the IC50 was found to be 230 nM in data set [1], 900 nM in data set [2], 810 nM in data set [3] and 390 nM in data set [4].

For `O=C(Nc1ccc(N(CCCl)CCCl)cc1)Nc1cc(CO)cc(Nc2c3ccccc3nc3ccccc23)c1` [BO-1037, 1-[3-(acridin-9-ylamino)-5-hydroxymethylphenyl]-3-{4-[bis(2-chloroethyl)amino]phenyl}urea], the IC50 in data set [1] came out at 60 nM; in data set [2] it was 220 nM; in data set [3] it was 370 nM; in data set [4] it was 17100 nM. Also, the “Therapeutic effect: complete tumor remission (CR), mice with CR/total and day” value (“Therapeutic effect … with CR/total and day” below) in data set [5] is “achieved CR in parts of the mice and 2/3 CR on D23, 25”. Moreover, the “Maximal body-weight loss (%)” value in data set [5] came to 12%. Moreover, the “Therapeutic effect: tumor relapse” value in data set [5] was 2/3 relapsed on D40, 40.

Consider `Cc1cccc2c(Nc3cc(CO)cc(NC(=O)Nc4ccc(N(CCCl)CCCl)cc4)c3)c3ccccc3nc12` [BO-1050, 1-{4-[bis(2-chloroethyl)amino]phenyl}-3-[3-hydroxymethyl-5-(4-methylacridin-9-ylamino)phenyl]urea], for which the IC50 in data set [2] amounted to 260 nM. For the same compound, in data set [3], the IC50 came out at 120 nM. Moreover, the IC50 in data set [4] turned out to be 390 nM. In addition, in data set [5], the “Therapeutic effect … with CR/total and day” value was “achieved CR in parts of the mice and 2/2 CR on D16, 18”; the “Maximal body-weight loss (%)” value is 9%; the “Therapeutic effect: tumor relapse” value is listed as “No relapse on D26”.

As for `Cc1ccc(NC(=O)Nc2ccc(N(CCCl)CCCl)cc2)cc1Nc1c2cccc(C)c2nc2c(C(=O)NCCN(C)C)cccc12` [BO-1053, 9-[5-(3-{4-[bis(2-chloroethyl)amino]phenyl}ureido)-2-methyl-phenylamino]-5-methyl-acridine-4-carboxylic acid (2-dimethylaminoethyl)amide], the IC50 in data set [1] is 10 nM; in data set [2] it was 60 nM; in data set [3] it was 60 nM; in data set [4], 180 nM. Besides, in data set [5], the “Remark (dose tolerability)” value is listed as “Too high dose”. Besides, in data set [5], the “Therapeutic effect … with CR/total and day” value is “achieved complete tumor remission”.

With `O=C(Nc1cc(CO)cc(Nc2c3ccccc3nc3ccccc23)c1)Oc1ccc(N(CCCl)CCCl)cc1` [BO-1062, [3-(acridin-9-ylamino)-5-hydroxymethylphenyl]carbamic acid 4-[bis(2-chloroethyl)amino]phenyl ester], the IC50 amounted to 80 nM in data set [1], 570 nM in data set [2], 100 nM in data set [3] and 140 nM in data set [4]. Besides, the “Therapeutic effect … with CR/total and day” value in data set [5] is “achieved complete tumor remission and 1/1 CR on D22”. Besides, the “Maximal body-weight loss (%)” value in data set [5] is recorded as 17%.

Take `CCOC(=O)Nc1cc(COC(=O)Oc2ccc(N(CCCl)CCCl)cc2)cc(Nc2c3ccccc3nc3ccccc23)c1` [BO-1065, carbonic acid 3-(acridin-9-yl-amino)-5-ethoxycarbonylaminobenzyl ester 4-[bis(2-chloroethyl)amino]phenyl ester]: the results for the IC50 in data set [2], in data set [3] and in data set [4] were 640 nM, 90 nM and 510 nM, respectively. Besides, the “Remark (dose tolerability)” value in data set [5] was “Too high dose”.

In the case of `COc1ccc(Nc2c3ccccc3nc3ccccc23)cc1NC(=O)Nc1ccc(N(CCCl)CCCl)cc1` [BO-1148], the IC50 in data set [1] amounted to 10 nM; in data set [2] it was 260 nM; in data set [3], 1200 nM; in data set [4], 30 nM.

`Cc1ccc(NC(=O)Nc2ccc(N(CCCl)CCCl)cc2)cc1Nc1c2ccccc2nc2c(C)cccc12` [BO-1149]: the IC50 in data set [1] came out at 10 nM; in data set [2], 160 nM; in data set [3], 590 nM; in data set [4] it was 20 nM.

Regarding `COc1ccc(Nc2c3ccccc3nc3c(C)cccc23)cc1NC(=O)Nc1ccc(N(CCCl)CCCl)cc1` [BO-1154], the IC50 in data set [1] came out at 10 nM; in data set [2] it was 70 nM; in data set [3] it was 370 nM; in data set [4], 10 nM.

Take `Cc1ccc(Nc2c3ccccc3nc3ccccc23)cc1NC(=O)Oc1ccc(N(CCCl)CCCl)cc1` [BO-1171]: the IC50 in data set [1] came to 80 nM; in data set [2] it was 430 nM; in data set [3] it was 210 nM; in data set [4], 220 nM.

`COc1ccc(Nc2c3ccccc3nc3ccccc23)cc1NC(=O)Oc1ccc(N(CCCl)CCCl)cc1` [BO-1172]: the IC50 was determined as 90 nM in data set [1], 190 nM in data set [2], 180 nM in data set [3] and 160 nM in data set [4].

`COc1ccc(Nc2c3ccccc3nc3c(C)cccc23)cc1NC(=O)Oc1ccc(N(CCCl)CCCl)cc1` [BO-1213]: the values for the IC50 in data set [1], in data set [3] and in data set [4] were 20 nM, 140 nM and 30 nM, respectively.

For the compound `COc1ccc2nc(C)cc(NNC(=O)Nc3ccc(N(CCCl)CCCl)cc3)c2c1` [BO-1228, N-{4-[bis(2-chloroethyl)amino]phenyl}-2-(6-methoxy-2-methyl-4-quinolinyl)hydrazinecarboxamide], the IC50 in data set [1] worked out at 200 nM; in data set [2] it was 260 nM; in data set [3] it was 260 nM; in data set [4], 1540 nM.

In the case of `Cc1cc(NC(=O)Nc2ccc(N(CCCl)CCCl)cc2)c2cc(N(C)C)ccc2n1` [BO-1231], the IC50 was 110 nM in data set [1], 300 nM in data set [2], 180 nM in data set [3] and 310 nM in data set [4].

Consider `Cc1cc(NNC(=O)Nc2ccc(N(CCCl)CCCl)cc2)c2ccccc2n1` [BO-1233, N-{4-[bis(2-chloroethyl)amino]phenyl}-2-(2-methyl-4-quinolinyl)hydrazinecarboxamide], for which the IC50 was 120 nM in data set [1], 380 nM in data set [2], 360 nM in data set [3] and 1830 nM in data set [4].

`Cc1cc(NNC(=O)Nc2ccc(N(CCCl)CCCl)cc2)c2cc(N(C)C)ccc2n1` [BO-1242]: the IC50 in data set [1] is 60 nM; in data set [2] it was 150 nM; in data set [3], 280 nM; in data set [4] it was 4190 nM.

Take `O=C(NNc1cc(-c2ccccc2)nc2cc3c(cc12)OCO3)Nc1ccc(N(CCCl)CCCl)cc1` [BO-1391]: the IC50 is 260 nM in data set [1], 2020 nM in data set [2], 1020 nM in data set [3] and 570 nM in data set [4].

With `O=C(NNc1cc(-c2ccccc2)nc2ccccc12)Nc1ccc(N(CCCl)CCCl)cc1` [BO-1393], the IC50 in data set [1] worked out at 580 nM; in data set [2], 1260 nM; in data set [3], 1780 nM; in data set [4], 910 nM.

Regarding `O=C(Nc1ccc(Nc2cc(-c3ccccc3)nc3ccccc23)cc1)Nc1ccc(N(CCCl)CCCl)cc1` [BO-2294], the IC50 in data set [1] was 3010 nM.

`O=C(Nc1ccc(N(CCCl)CCCl)cc1)Nc1cccc(Nc2cc(-c3ccccc3)nc3ccccc23)c1` [BO-2295]: the IC50 in data set [1] came to 1860 nM.

Consider `CC(=O)O[C@H]1C(=O)[C@@]2(C)[C@H]([C@H](OC(=O)c3ccccc3)[C@]3(O)C[C@H](OC(=O)[C@H](O)[C@@H](NC(=O)c4ccccc4)c4ccccc4)C(C)=C1C3(C)C)[C@]1(OC(C)=O)CO[C@@H]1C[C@@H]2O` [Taxol, reference compound], for which the IC50 in data set [3] worked out at 40 nM; in data set [4], 430 nM.

In the case of `CC[C@]1(O)C[C@@H]2CN(CCc3c([nH]c4ccccc34)[C@@](C(=O)OC)(c3cc4c(cc3OC)N(C)[C@H]3[C@@](O)(C(=O)OC)[C@H](OC(C)=O)[C@]5(CC)C=CCN6CC[C@]43[C@@H]65)C2)C1` [Vinblastine, reference compound], in data set [4], the IC50 came to 80 nM.
